Data taken from patent US6407248B1, “α-unsaturated amines, their production and use” (Takeda Chemical Industries, Ltd., priority 1987, dated 2002).

test system: Brown Planthoppers (Nilaparvata lugens); assay: Effect against brown planthoppers (foliar spray on rice seedlings); assay type: in vivo; conditions: Nilaparvata lugens, foliar, 168 h, read-out: % Mortality after 7 days
Method: Effect Against Brown Planthoppers (Nilaparvata lugens)
An emulsifiable concentrate of the compound of the invention, prepared in the same manner as Example 112 below, was diluted with water to a concentration of 500 ppm and sprayed over the stems and leaves of rice seedlings in the 2-leaf stage at the rate of 10 ml per paper pot. Water was put in test tubes and the treated rice seedlings were placed therein. Then, 10 brown planthopper larvae were released in each tube, which was then capped with an aluminum cap. The test tubes were maintained in an incubator at 25° C. and the dead insects were counted 7 days after release. The % mortality was calculated using the following formula. [formula]

Question: `CNC(=C[N+](=O)[O-])NCc1ccc(Cl)nc1Cl` [Compound 47, 1-(2,6-Dichloro-3-pyridylmethyl)amino-1-methylamino-2-nitroethylene] was tested. Which mortality at 500 µg/mL did it give?
Answer: The mortality at 500 µg/mL was 100%.

Question: `NNC(=C[N+](=O)[O-])NCc1cccnc1` [Compound 18, 1-Hydrazino-1-(3-pyridylmethyl)amino-2-nitroethylene] was tested. Which mortality at 500 µg/mL did it give?
Answer: The mortality at 500 µg/mL was 100%.

Question: With `CN(C)C(=C[N+](=O)[O-])NCc1ccc(Br)nc1` [Compound 127, 1-N-(6-Bromo-3-pyridylmethyl)amino-1-dimethylamino-2-nitroethylene] as the compound, how does the mortality at 500 µg/mL read?
Answer: Its mortality at 500 µg/mL is 100%.

Question: Which mortality at 500 µg/mL does the source give for `CNC(=C[N+](=O)[O-])NCc1ccc(Cl)nc1` [Compound 28, 1-(6-Chloro-3-pyridylmethyl)amino-1-methylamino-2-nitroethylene] here?
Answer: The mortality at 500 µg/mL was 100%.

Question: How did the mortality at 500 µg/mL turn out when `CN(C)C(=C[N+](=O)[O-])NCc1cnc(Cl)s1` [Compound 104, 1-(2-Chloro-5-thiazolylmethyl)amino-1-dimethyl-amino-2-nitroethylene] was run?
Answer: Its mortality at 500 µg/mL is 100%.

Question: Which mortality at 500 µg/mL does the source give for `CCN(Cc1cnc(Cl)s1)C(=C[N+](=O)[O-])N(C)C=O` [Compound 122, 1-[N-(2-Chloro-5-thiazolylmethyl)-N-ethyl) amino-1-(N-formyl-N-methyl)amino-2-nitroethylene] here?
Answer: The mortality at 500 µg/mL was 100%.

Question: `CCN(Cc1ccc(Cl)nc1)C(N)=C[N+](=O)[O-]` [Compound 59, 1-Amino-1-[N-(6-chloro-3-pyridylmethyl)-N-ethyl]-amino-2-nitroethylene] was tested. Which mortality at 500 µg/mL did it give?
Answer: The mortality at 500 µg/mL was 100%.

Question: With `CN(C)C(=C[N+](=O)[O-])N(C=O)Cc1ccc(Br)nc1` [Compound 128, 1-[N-(6-Bromo-3-pyridylmethyl)-N-formyl]amino-1-dimethylamino-2-nitroethylene] as the compound, how does the mortality at 500 µg/mL read?
Answer: The mortality at 500 µg/mL was 100%.

Question: `CCOC(=O)C(=C(NC)NCc1ccc(Cl)nc1)[N+](=O)[O-]` [Compound 116, 1-(6-Chloro-3-pyridylmethyl)amino-1-methylamino-2-ethoxycarbonyl-2-nitroethylene] was tested. Which mortality at 500 µg/mL did it give?
Answer: The mortality at 500 µg/mL was 100%.

Question: How did the mortality at 500 µg/mL turn out when `CCNC(=C[N+](=O)[O-])NCc1cccnc1` [Compound 4, 1-Ethylamino-1-(3-pyridylmethyl)amino-2-nitroethylene] was run?
Answer: The mortality at 500 µg/mL was 100%.

Question: With `CCN(Cc1cnc(Cl)s1)C(=C[N+](=O)[O-])NC` [Compound 103, 1-[N-(2-Chloro-5-thiazolylmethyl)-N-ethyl]amino-1-methylamino-2-nitroethylene] as the compound, how does the mortality at 500 µg/mL read?
Answer: The mortality at 500 µg/mL was 100%.

Question: How did the mortality at 500 µg/mL turn out when `CNC(=C[N+](=O)[O-])N(Cc1ccc(Cl)nc1)CC(F)(F)F` [Compound 131, 1-[N-(6-Chloro-3-pyridylmethyl)-N-(2,2,2-trifluoroethyl)]amino-1-methylamino-2-nitroethylene] was run?
Answer: The mortality at 500 µg/mL was 100%.

Question: For `CNC(=C[N+](=O)[O-])NCc1cnc(Cl)s1` [Compound 106, 1-(2-Chloro-5-thiazolylmethyl)amino-1-methylamino-2-nitroethylene], which mortality at 500 µg/mL is on record?
Answer: The mortality at 500 µg/mL was 100%.

Question: For `CCN(Cc1ccc(Br)nc1)C(=C[N+](=O)[O-])NC` [Compound 101, 1-[N-(6-Bromo-3-pyridylmethyl)-N-ethyl]amino-1-methylamino-2-nitroethylene], which mortality at 500 µg/mL is on record?
Answer: Its mortality at 500 µg/mL is 100%.

Question: Which mortality at 500 µg/mL does the source give for `CCN(Cc1ccc(F)nc1)C(=C[N+](=O)[O-])NC` [Compound 99, 1-[N-Ethyl-N-(6-fluoro-3-pyridylmethyl)]amino-1-methylamino-2-nitroethylene] here?
Answer: Its mortality at 500 µg/mL is 100%.

Question: `C[Si](C)(C)CNC(=C[N+](=O)[O-])NCc1cccnc1` [Compound 17, 1-(3-Pyridylmethyl)amino-1-(trimethylsilylmethyl)amino-2-nitroethylene] was tested. Which mortality at 500 µg/mL did it give?
Answer: Its mortality at 500 µg/mL is 100%.

Question: For `CN(C=O)C(=C[N+](=O)[O-])N(C)Cc1ccc(Br)nc1` [Compound 125, 1-[N-(6-Bromo-3-pyridylmethyl)-N-methyl]amino-1-(N-formyl-N-methyl)amino-2-nitroethylene], which mortality at 500 µg/mL is on record?
Answer: The mortality at 500 µg/mL was 100%.

Question: How did the mortality at 500 µg/mL turn out when `CCCN(Cc1ccc(Cl)nc1)C(N)=C[N+](=O)[O-]` [Compound 75, 1-Amino-1-[N-(6-chloro-3-pyridylmethyl)-N-n-propyl]-amino-2-nitroethylene] was run?
Answer: Its mortality at 500 µg/mL is 100%.

Question: With `CNC(=C[N+](=O)[O-])NCc1cccnc1` [Compound 3, 1-Methylamino-1-(3-pyridylmethyl)amino-2-nitroethylene] as the compound, how does the mortality at 500 µg/mL read?
Answer: Its mortality at 500 µg/mL is 100%.

same assay, conditions: Nilaparvata lugens, foliar, 168 h; emulsifiable concentrate diluted with water to 500 ppm, sprayed on rice seedlings (2-leaf stage), 10 ml per paper pot; 10 larvae per tube; 25° C.; dead insects counted 7 days after release; read-out: % Mortality after 7 days

Question: With `CNC(=C[N+](=O)[O-])NCc1ccc(Cl)cc1` [Compound 70, 1-(4-Chlorobenzyl)amino-1-methylamino-2-nitroethylene] as the compound, how does the mortality at 500 µg/mL read?
Answer: Its mortality at 500 µg/mL is 100%.

Question: Which mortality at 500 µg/mL does the source give for `CNC(=C[N+](=O)[O-])N(C)c1ccc(Cl)nc1` [Compound 78, 1-[N-(6-Chloro-3-pyridyl)-N-methyl]amino-1-methyl-amino-2-nitroethylene] here?
Answer: The mortality at 500 µg/mL was 100%.

Question: With `CN(C=O)C(=C[N+](=O)[O-])N(C)c1ccc(Cl)nc1` [Compound 112, 1[N-(6-Chloro-3-pyridyl)-N-methyl]amino-1-(N-formyl-N-methyl)amino-2-nitroethylene] as the compound, how does the mortality at 500 µg/mL read?
Answer: The mortality at 500 µg/mL was 100%.

Question: Which mortality at 500 µg/mL does the source give for `CNC(=C[N+](=O)[O-])N(C)CCc1cccnc1` [Compound 55, 1-Methylamino-1-[N-methyl-N-[2-(3-pyridyl)ethyl]-amino]-2-nitroethylene] here?
Answer: The mortality at 500 µg/mL was 100%.

Question: Which mortality at 500 µg/mL does the source give for `CNC(=C[N+](=O)[O-])N(C)c1ccc(C)nc1` [Compound 84, 1-Methylamino-1-[N-methyl-N-(6-methyl-3-pyridyl)]-amino-2-nitroethylene] here?
Answer: The mortality at 500 µg/mL was 100%.

Question: For `CN(C)CCNC(=C[N+](=O)[O-])NCc1cccnc1` [Compound 12, 1-(2-Dimethylaminoethyl)amino-1-(3-pyridylmethyl)amino-2-nitroethylene], which mortality at 500 µg/mL is on record?
Answer: The mortality at 500 µg/mL was 100%.

Question: For `CNC(=C[N+](=O)[O-])N(C)Cc1ccc(Cl)cc1` [Compound 68, 1-[N-(4-Chlorobenzyl)-N-methyl]amino-1-methylamino-2-nitroethylene], which mortality at 500 µg/mL is on record?
Answer: The mortality at 500 µg/mL was 100%.

Question: `C=CCNC(=C[N+](=O)[O-])NCc1cccnc1` [Compound 7, 1-Allylamino-1-(3-pyridylmethyl)amino-2-nitroethylene] was tested. Which mortality at 500 µg/mL did it give?
Answer: Its mortality at 500 µg/mL is 100%.

Question: How did the mortality at 500 µg/mL turn out when `CNC(=C[N+](=O)[O-])N(C)Cc1cncc(Br)c1` [Compound 86, 1-[N-(5-Bromo-3-pyridylmethyl)-N-methyl]amino-1-methylamino-2-nitroethylene] was run?
Answer: The mortality at 500 µg/mL was 100%.

Question: `CN(Cc1cccnc1)C(=C[N+](=O)[O-])N(C)Cc1cccnc1` [Compound 57, 1,1-bis(N-methyl-N-3-pyridylmethyl)amino-2-nitroethylene] was tested. Which mortality at 500 µg/mL did it give?
Answer: Its mortality at 500 µg/mL is 100%.

Question: For `CNC(=C[N+](=O)[O-])N(C)Cc1ccncc1` [Compound 62, 1-Methylamino-1-[N-methyl-N-(4-pyridylmethyl)]-amino-2-nitroethylene], which mortality at 500 µg/mL is on record?
Answer: The mortality at 500 µg/mL was 100%.

Question: How did the mortality at 500 µg/mL turn out when `CCNC(=C[N+](=O)[O-])N(CC)c1ccc(Cl)nc1` [Compound 93, 1-[N-(6-Chloro-3-pyridyl)-N-ethyl]amino-1-ethyl-amino-2-nitroethylene] was run?
Answer: The mortality at 500 µg/mL was 100%.

Question: How did the mortality at 500 µg/mL turn out when `CN(C)C(=C[N+](=O)[O-])N(C=O)Cc1cccnc1` [Compound 72, 1-Dimethylamino-1-[N-formyl-N-(3-pyridylmethyl)]-amino-2-nitroethylene] was run?
Answer: Its mortality at 500 µg/mL is 100%.

Question: Which mortality at 500 µg/mL does the source give for `CNC(=C[N+](=O)[O-])N(C)c1cccnc1` [Compound 79, 1-Methylamino-1-[N-methyl-N-(3-pyridyl)]amino-2-nitroethylene] here?
Answer: Its mortality at 500 µg/mL is 100%.

Question: For `O=[N+]([O-])C=C(NCc1cccnc1)N1CCCC1` [Compound 20, 1-(3-Pyridylmethyl)amino-1-pyrrolidino-2-nitroethylene], which mortality at 500 µg/mL is on record?
Answer: Its mortality at 500 µg/mL is 100%.

Question: `COCCNC(=C[N+](=O)[O-])N(C)Cc1cccnc1` [Compound 67, 1-(2-Methoxyethyl)amino-1-[N-methyl-N-(3-pyridylmethyl)]amino-2-nitroethylene] was tested. Which mortality at 500 µg/mL did it give?
Answer: Its mortality at 500 µg/mL is 100%.

same assay, conditions: emulsifiable concentrate diluted with water to 500 ppm, sprayed on rice seedlings (2-leaf stage), 10 ml per paper pot; 10 larvae per tube; 25° C.; dead insects counted 7 days after release

Question: For `COCCNC(=C[N+](=O)[O-])NCc1cccnc1` [Compound 14, 1-(2-Methoxyethyl)amino-1-(3-pyridylmetyl)amino-2-nitroethylene], which “% Mortality after 7 days” value is on record?
Answer: Its value is 100%.

Question: For `CN(Cc1cccnc1)C(N)=C[N+](=O)[O-]` [Compound 25, 1-Amino-1-(N-methyl-N-3-pyridylmethyl)amino-2-nitroethylene], which “% Mortality after 7 days” value is on record?
Answer: The value was 100%.

Question: `CN(Cc1ccc(Cl)nc1)C(N)=C[N+](=O)[O-]` [Compound 45, 1-Amino-1-[N-(6-chloro-3-pyridylmethyl)-N-methyl]-amino-2-nitroethylene] was tested. Which “% Mortality after 7 days” value did it give?
Answer: Its value is 100%.

Question: `CCNC(=C[N+](=O)[O-])N(C)Cc1cccnc1` [Compound 33, 1-Ethylamino-1-[N-methyl-N-(3-pyridylmethy)]amino-2-nitroethylene] was tested. Which “% Mortality after 7 days” value did it give?
Answer: The value was 100%.

Question: `CNC(=C[N+](=O)[O-])N(C)C(C)c1cccnc1` (centres unmarked) [Compound 40, 1-Metylamino-1-[N-methyl-N-[1-(3-pyridyl)ethyl]]amino-2-nitroethylene] was tested. Which “% Mortality after 7 days” value did it give?
Answer: The value was 100%.

Question: How did the “% Mortality after 7 days” value turn out when `CCN(Cc1cccnc1)C(=C[N+](=O)[O-])NC` [Compound 31, 1-[N-Ethyl-N-(3-pyridylmethyl)]amino-1-methylamino-2-nitroethylene] was run?
Answer: Its value is 100%.

Question: Which “% Mortality after 7 days” value does the source give for `CN(C)NC(=C[N+](=O)[O-])NCc1cccnc1` [Compound 24, 1-(2,2-Dimethyl-1-hydrazino)-1-(3-pyridylmethyl)amino-2-nitroethylene] here?
Answer: The value was 100%.

Question: How did the “% Mortality after 7 days” value turn out when `CN(Cc1cccnc1)C(=C[N+](=O)[O-])NCc1ccccc1` [Compound 38, 1-Benzylamino-1-[N-methyl-N-(3-pyridylmethyl)l]amino-2-nitroethylene] was run?
Answer: The value was 100%.

Question: Which “% Mortality after 7 days” value does the source give for `CNC(=C[N+](=O)[O-])N(C)Cc1ccc(Cl)nc1` [Compound 29, 1-[N-(6-Chloro-3-pyridylmethyl)-N-methyl]amino-1-methylamino-2-nitroethylene] here?
Answer: The value was 100%.
